Measurements from patent US9963485B2, “Cycloheptapeptide agents for treatment of cancer and obesity diseases” (Hong Kong Baptist University, priority 2012, dated 2018).
Like-named read-outs stand apart in the source and are kept apart here. *1 amine or outer side, *2 acyl side, *3 side chain or, on linkers, in order; H or OH if unused. Where a SMILES comes first, the peptide text is derived from it. [ ]: non-standard residue; d: D form. X3 = CC1C(C)C1C(N[*:1])C(=O)[*:2]; dGly(cPr) = N[C@@H](C(=O)O)C1CC1; Gly(cPr) = N[C@H](C(=O)O)C1CC1; NMeL = CN[CH](CC(C)C)C(=O)O; NMeA = CN[CH](C)C(=O)O; dNMeA = CN[C@H](C)C(=O)O

Tests used:
[1] = system: prostate (LNCaP) carcinoma cell line; experiment: cells; type: cell-based, human; details: 72 hours, read-out: Cytotoxic activity IC50, LNCaP
Experimental: (§4) Pure compounds are evaluated against the human cancer cell lines comprising our cytotoxicity screening panel. Cytotoxicity assays involving oral epidermoid (KB), colon (HCT116), prostate (LNCaP), breast (MCF7), Hela (cervical), leukemia (HL-60) melanoma (A375) and lung (A549) carcinoma cell lines, are performed using sulforhodamine B according to established protocols (Zhang et al., Journal of Medicinal Chemistry 2006; 49: 693-708; and Jutiviboonsuk A et al., Phytochemistry 2005; 66: 2745-2751.). KB and A375 cells are maintained in DMEM (Dulbecco's modified Eagle medium) medium. LNCaP and HL60 cells are maintained in RPMI1640 medium with hormone-free 10% heat-activated FBS (fetal bovine serum) supplemented with 0.1 nM testosterone. MCF7 and Hela cells are maintained and assayed in MEME (Minimum Essential Medium Eagle) medium containing 10 mg/L of insulin. HCT116 cells are maintained in McCoy's 5A medium supplemented with 10% fetal bovine serum. A549 cells are maintained in RPMI-1640 medium supplemented with 10% FCS. Serial dilutions of the compounds are prepared using 10% aqueous DMSO as solvent. The 190 μL cell suspension (3×10^4 cells in 1 ml media) is incubated with 10 μL sample solutions, in triplicate, in 96-well tissue culture plate at 37° C. in a humidified atmosphere of 5% CO2 in air for 72 hours. 10 μL 10% aqueous DMSO is used as control group. Then the cells are fixed to plastic substratum by the addition of 100 μL cold 20% aqueous trichloroacetic acid and washing with water after incubation at 4° C. for 30 min. After staining cells with 100 μL of 0.4% sulforhodamine B in 1% aqueous AcOH for 30 min, unbound dye is removed by rinsing with 1% aqueous AcOH. The bound dye is solubilized with 200 μL 10 mM unbuffered Tris base, pH 10, and the optical density is measured at 515 nm using an ELISA plate reader. The average data are expressed as a percentage, relative to the control. The IC50 values, the dose that inhibit cell growth by 50%, are calculated using nonlinear regression analysis (percent survival versus concentration).

[2] = system: lung (A549) carcinoma cell line; experiment: cells; type: cell-based, human; details: for IC50: 72 hours, read-out: Cytotoxic activity IC50, A549; for IC90: read-out: Cytotoxic activity IC90, A549
Experimental: as §4

[3] = system: breast (MCF7) carcinoma cell line; experiment: cells; type: cell-based, human; details: for IC50: 72 hours, read-out: Cytotoxic activity IC50, MCF7; for IC90: read-out: Cytotoxic activity IC90, MCF7
Experimental: as §4

[4] = system: murine P388 leukemia cells; details: at a concentration of 10 ng/mL
[5] = Body weight of mice after drug treatment; details: for Drop of average weight of mice after the first treatment: i.p. injection; for Drop of average weight of mice after six treatments: twice a week
[6] = system: colon (HCT116) carcinoma cell line; experiment: Cytotoxicity assay (sulforhodamine B), HCT116; details: for IC50: read-out: Cytotoxic activity IC50, HCT116
Experimental: as §4

[7] = system: oral epidermoid (KB) carcinoma cell line; experiment: Cytotoxicity assay (sulforhodamine B), KB; type: cell-based, human; details: KB cells; for IC50: 72 hours, read-out: Cytotoxic activity IC50, KB
Experimental: as §4

3T3-L1 murine adipocytes [8] = experiment: 3T3-L1 fat accumulation (triglyceride) assay; type: cell-based; details: differentiated 3T3-L1 adipocytes, 7 days, read-out: Anti-obesity activity (fat accumulation) EC50
Experimental: (§1) MV-A, MV-B, MV-C and MV-D are evaluated for their anti-obesity effects in 3T3-L1 murine adipocytes. 3T3-L1 cells are cultured in the presence of insulin to induce adipocyte differentiation.
(§2) Pure compounds are evaluated against 3T3-L1 cell line for their potential anti-obesity activity. […] After the cells reach 100% confluence, the culture medium is changed to a differentiation DMEM medium containing 10% FCS, […], 0.5 mM 3-isobutyl-1-methylxanthine (IBMX), 90 U/mL penicillin, […] and 10 μg/mL insulin for induction of the adipocyte form of the 3T3-L1 cells. After 2 days, the differentiation medium is changed back to the normal DMEM medium and refreshed with the normal medium every 2 days. After incubation of additional 7 days, the cells are seeded in two sets of 96-well plates (about 10,000 cells per well). The test compounds in different concentrations are then added to the wells with 0.5% aqueous DMSO as control group. After incubation of 7 days, the differentiated 3T3-L1 adipocytes are treated with 2% Triton-X 100 ([…]) for 30 min at room temperature followed by sonication for 1 min. Fat accumulation is determined by measuring the liberated triglyceride using a Wato Triglyceride E-test Kit with the absorbance at 630/690 nm. The fat-accumulation rate is calculated as a percentage of the DMSO control. […] The cell viability of the differentiated 3T3-L1 adipocytes in another 96-well plate is treated with a Wako Cell Counting Kit-8 Test and measured with the absorbance at 450 nm. The cell viability is calculated as a percentage of the control.

3T3-L1 murine adipocytes [9] = experiment: 3T3-L1 adipocyte cell viability; type: cell-based; details: differentiated 3T3-L1 adipocytes
Experimental: as §1, §2

[10] = system: HIV (human immunodeficiency virus)
[11] = system: panel of cancer cell lines comprising KB, HCT116, LNCaP, A549, MCF7, HL60, Hela and A375; details: at 2 μM
HCT116-tumor xenograft = experiment: HCT116 xenograft mouse model; type: in vivo; details: 5 mg/kg, every other day for 21 days
Experimental: The treatment started on the 6th day when the HCT116-tumor reached approximately 100 mm^3 (L×W×W). […] All mice died for the maytansine group after the initial two treatments at the dose of 0.1 mg/kg, indicating the highly toxicity of maytansine.

[12] = system: breast cancer cell line (MCF7); experiment: Hollow fiber in vivo test, MCF7; parameters: species or system mouse; details: 2.0 mg/kg
Experimental: (§3) Hollow fiber tests are well known in the art for providing preliminary indications of therapeutic efficacy (Mi et al. J. Nat. Prod. 2002, 65: 842-850). In hollow fiber tests, human tumor cell lines currently employed in cell cultures are grown inside semipermeable hollow fibers to form heterogeneous solid tumor models. […] By evaluating the test compound's inhibition of tumor cell growth versus the toxic response in the host, a preliminary estimate of therapeutic efficacy is provided in a cost- and time effective manner.

[13] = system: cervical cancer cell line (Hela); experiment: Hollow fiber in vivo test, Hela; parameters: species or system mouse; details: 2.0 mg/kg
Experimental: as §3

[14] = system: colon cancer cell line (HCT116); experiment: Hollow fiber in vivo test, HCT116; parameters: species or system mouse; details: 2.0 mg/kg
Experimental: as §3

[15] = system: melanoma cancer cell line (A375); experiment: Hollow fiber in vivo test, A375; parameters: species or system mouse; details: 2.0 mg/kg
Experimental: as §3

MCF7-tumor xenograft = experiment: MCF7 xenograft mouse model; details: 5 mg/kg, twice a week for 3 weeks
Experimental: The treatment started on the 12th day when the MCF7-tumor size reached approximately 100 mm^3 (L×W×H). Two doses of MV-A (1.0 and 2.0 mg/kg), paclitaxel (5 mg/kg), and vehicle were administered via i.p. (intraperitoneal), i.v. (intravenous), or oral respectively, to the tumor-bearing mice twice a week for 3 weeks ([…]).
Antitumor animal study. All animal studies were approved and performed according to Animal Care and Use Guidelines of the Animal Ethics Committee at Hong Kong Baptist University and performed following Animal Care and Use guidelines set by NIH (National Institute of Health, USA). BALB/c nude mice, SPF class, male or female, 5-6 weeks old, were purchased from Charles River Laboratories. Before the experiment, it is one week of acclimatization to SPF class laboratory conditions. MV-A is tested for its anticancer activity against HCT116 and MCF7 cancer cells using a number of nude mice (Balc/nu/nu, female) in comparison of paclitaxel and maytansine. HCT116 or MCF7 cancer cells are subcutaneously implanted with 5×10^6 cells in the rear flank of each mouse. Female mice receiving MCF-7 cells are implanted with an s.c. pellet of 17β-estradiol (0.72 mg/pellet) a few days prior to injection to induce tumors. […] The mice are divided into 5 groups for HCT116 cancer cells: one high dose (1.0 mg/kg: 10 mice) group of MV-A, one low dose (0.5 mg/kg: 10 mice) group of MV-A, one dose (5.0 mg/kg: 10 mice) of paclitaxel, one dose of maytansine (0.1 mg/kg) and one dose of vehicle (negative control: 10 mice). The mice are then divided into 4 groups for MCF7 cancer cells: one high dose (2.0 mg/kg: 10 mice) group of MV-A, one low dose (1.0 mg/kg: 10 mice) group of MV-A, one dose (5.0 mg/kg: 10 mice) of paclitaxel, and one dose of vehicle (negative control: 10 mice). Every other day administration via i.p. (intraperitoneal), i.v. (intravenous), or oral, respectively are scheduled for 21 days for the HCT116 groups. Twice a week injections administered via i.p. (intraperitoneal), i.v. (intravenous), or oral, respectively are scheduled for […] for the MCF7 groups. Weights of mice and tumor diameters are measured twice a week until the end of the experiment. The tumor size in mm^3 was calculated by the formula: tumor size=length×width×height (L×W×H).

[16] = system: lung cancer cell line (A549); experiment: Hollow fiber in vivo test, A549; parameters: species or system mouse; details: 2.0 mg/kg
Experimental: as §3

3T3-L1 murine adipocytes [17] = details: literature (Shimokawa et al. 2006); cited from earlier work

CC(C)CC1NC(=O)C(C)N(C)C(=O)C(C)N(C)C(=O)C(C2C(C)C2C)NC(=O)C(CC(C)C)N(C)C(=O)C(C)N(C)C(=O)C(C2C(C)C2C)NC1=O (centres unmarked) [Compound 1] (cyclo([X3][NMeA][NMeA]L[X3][NMeA][NMeL]); configuration not given here)
IC50 [1]: 0.42 nM | IC50 [2]: 0.24 nM | IC90 [2]: 1.02 nM | IC50 [3]: 0.26 nM | IC90 [3]: 1.47 nM | Inhibition of cell growth of murine P388 leukemia cells [4]: 100% | Mortality during the treatments ([5]; 1 mg/kg and 2 mg/kg): No mice die | Toxicity observed from dissection of the mice ([5]; 1 mg/kg and 2 mg/kg): No sign of toxicity | Drop of average weight of mice after the first treatment ([5]; 1 mg/kg): 1.5 g | Drop of average weight of mice after the first treatment ([5]; 2 mg/kg): 2.2 g | Drop of average weight of mice after six treatments ([5]; 1 mg/kg): 1.7 g | Drop of average weight of mice after six treatments ([5]; 2 mg/kg): 4.7 g | IC50 ([6]; HCT116 cells, 72 hours): 0.25 nM | IC90 ([6]; read-out: Cytotoxic activity IC90, HCT116, HCT116 cells): 0.69 nM | Cytotoxic activity IC90, KB [7]: 1.65 nM | IC50 [7]: 0.05 nM

CC(C)CC1NC(=O)C(C)N(C)C(=O)C(C)N(C)C(=O)C(C2C(C)C2C)NC(=O)C(CC(C)CO)N(C)C(=O)C(C)N(C)C(=O)C(C2C(C)C2C)NC1=O (centres unmarked) [Compound 2]
IC50 [2]: 6.35 nM | IC90 [2]: 6.84 nM | IC50 [3]: 5.83 nM | IC90 [3]: 9.21 nM | Inhibition of cell growth of murine P388 leukemia cells [4]: 100% | IC50 ([6]; HCT116 cells, 72 hours): 2.62 nM | Cytotoxic activity IC90, KB [7]: 11.4 nM | IC50 [7]: 0.79 nM

CC(C)C[C@H]1NC(=O)[C@@H](C)N(C)C(=O)[C@H](C)N(C)C(=O)[C@H](C2CC2)NC(=O)[C@H](CC(C)C)N(C)C(=O)[C@H](C)N(C)C(=O)[C@@H](C2CC2)NC1=O [MV-D] (cyclo([Gly(cPr)][NMeA][dNMeA][dL][dGly(cPr)][NMeA][NMeL]))
EC50 (3T3-L1 murine adipocytes [8]): 13.3 nM | IC50 (3T3-L1 murine adipocytes [9]): > 5000 nM | IC50 [10]: 1240 nM | Inhibition activity against the cancer cells [11]: no inhibition activity

CC(=O)O[C@H]1C(=O)[C@@]2(C)[C@H]([C@H](OC(=O)c3ccccc3)[C@]3(O)C[C@H](OC(=O)[C@H](O)[C@@H](NC(=O)c4ccccc4)c4ccccc4)C(C)=C1C3(C)C)[C@]1(OC(C)=O)CO[C@@H]1C[C@@H]2O [Paclitaxel, reference compound]
Inhibition of HCT116 tumor growth (excised tumor weights) (HCT116-tumor xenograft): 37.6% | IC50 ([1]; Homo sapiens): 15.9 nM | Inhibition (%) ([12]; MCF7-IP): 70.7% | Inhibition (%) ([12]; MCF7-SC): 0% | Inhibition (%) ([13]; Hela-IP): 69.5% | Inhibition (%) ([13]; Hela-SC): 11.1% | IC50 ([2]; Homo sapiens): 4.81 nM | IC90 ([2]; Homo sapiens): > 20 nM | Inhibition (%) ([14]; HCT116-IP): 60.4% | Inhibition (%) ([14]; HCT116-SC): 0% | IC50 ([3]; Homo sapiens): 3.24 nM | IC90 ([3]; Homo sapiens): > 30 nM | Inhibition (%) ([15]; A375-IP): 38.1% | Inhibition (%) ([15]; A375-SC): 7.8% | IC50 ([6]; Homo sapiens, HCT-116, 72 h): 5.78 nM | IC90 ([6]; Homo sapiens, HCT-116, read-out: Cytotoxic activity IC90, HCT116): > 20 nM | Inhibition of MCF7 tumor growth (excised tumor weights) (MCF7-tumor xenograft): 28.2% | IC50 ([7]; Homo sapiens): 3.38 nM | Cytotoxic activity IC90, KB [7]: >20 nM | Inhibition (%) ([16]; A549-IP): 39.8% | Inhibition (%) ([16]; A549-SC): 0%

Ternatin
Inhibition of fat accumulation against 3T3-L1 murine adipocytes (3T3-L1 murine adipocytes [17]): potent inhibitor of fat accumulation
